Test system: PRISM DNA-barcoded human tumour cell lines
Assay: PRISM pooled cell viability assay;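 as to PRISM AUC: 8 threefold dilutions from 10 µM with 5 days of exposure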
Assay type: cell-based
Set-up: AUC (PRISM viability) / AUC (PRISM): unit not given beside the values
Details: for AUC (PRISM viability): WT; for PRISM AUC: KRAS MUT
Procedure: Cells were then lysed in TCL mRNA lysis buffer, and then PCR with reverse transcription was performed. Detection of the barcodes and univariate and multivariate analysis was then performed as previously described. Data analysis is described in the Supplementary Methods. Up-to-date code for our analysis is at the github link: https://github.com/cmap/dockerized_mts.
For every gene with non-silent mutations in at least four cell-lines, we compared the AUC values between cells with and without those mutations using a t-test. This analysis was carried out for: (i) the full dataset; (ii) excluding cell lines with non-silent KRAS mutations; and (iii) excluding cell lines that have either KRAS or NRAS non-silent mutations.

CCn1c(-c2cc(N3CCN(C4CC4)CC3)cnc2[C@H](C)OC)c2c3cc(ccc31)-c1csc(n1)C[C@H](NC(=O)[C@H]1[C@@H]3COC[C@@H]31)C(=O)N1CCC[C@H](N1)C(=O)OCC(C)(C)C2 [RMC-7977]
AUC (PRISM viability) (KURAMOCHI_OVARY): 1 | AUC (PRISM viability) (KYM1_SOFT_TISSUE): 0.3526 | AUC (PRISM viability) (KYO1_HAEMATOPOIETIC_AND_LYMPHOID_TISSUE): 0.2345 | AUC (PRISM viability) (KYSE30_OESOPHAGUS): 0.402 | AUC (PRISM viability) (KYSE70_OESOPHAGUS): 0.7015 | AUC (PRISM viability) (KYSE140_OESOPHAGUS): 0.5343 | AUC (PRISM viability) (KYSE150_OESOPHAGUS): 0.4708 | AUC (PRISM viability) (KYSE180_OESOPHAGUS): 0.5999 | AUC (PRISM viability) (KYSE270_OESOPHAGUS): 0.564 | PRISM AUC (KYSE410_OESOPHAGUS): 0.2588 | AUC (PRISM viability) (KYSE450_OESOPHAGUS): 0.34 | AUC (PRISM viability) (KYSE510_OESOPHAGUS): 0.4594 | AUC (PRISM viability) (KYSE520_OESOPHAGUS): 0.4602 | PRISM AUC (L33_PANCREAS): 0.3993 | AUC (PRISM viability) (L363_HAEMATOPOIETIC_AND_LYMPHOID_TISSUE): 0.6953 | AUC (PRISM viability) (LAMA84_HAEMATOPOIETIC_AND_LYMPHOID_TISSUE): 0.3291 | AUC (PRISM viability) (LCLC103H_LUNG): 0.6805 | AUC (PRISM viability) (LI7_LIVER): 0.4821 | AUC (PRISM viability) (LK2_LUNG): 0.4878 | AUC (PRISM viability) (LMSU_STOMACH): 0.6242 | AUC (PRISM viability) (LN18_CENTRAL_NERVOUS_SYSTEM): 0.6382 | AUC (PRISM viability) (LN229_CENTRAL_NERVOUS_SYSTEM): 0.6899 | AUC (PRISM viability) (LN382_CENTRAL_NERVOUS_SYSTEM): 0.6351 | AUC (PRISM viability) (LNCAPCLONEFGC_PROSTATE): 0.7528 | AUC (PRISM viability) (LNZ308_CENTRAL_NERVOUS_SYSTEM): 0.4353 | AUC (PRISM viability) (LOUNH91_LUNG): 0.4098 | PRISM AUC (LOVO_LARGE_INTESTINE): 0.4131 | AUC (PRISM viability) (LOXIMVI_SKIN): 1 | PRISM AUC (LS180_LARGE_INTESTINE): 0.2098 | AUC (PRISM viability) (LS411N_LARGE_INTESTINE): 1 | PRISM AUC (LS513_LARGE_INTESTINE): 0.2181 | PRISM AUC (LU99_LUNG): 0.2453 | AUC (PRISM viability) (LUDLU1_LUNG): 0.5495 | AUC (PRISM viability) (LXF289_LUNG): 0.5423 | AUC (PRISM viability) (M059K_CENTRAL_NERVOUS_SYSTEM): 0.9015 | AUC (PRISM viability) (MALME3M_SKIN): 0.9889 | AUC (PRISM viability) (MC116_HAEMATOPOIETIC_AND_LYMPHOID_TISSUE): 0.9825 | PRISM AUC (MCAS_OVARY): 0.3593 | AUC (PRISM viability) (MCF7_BREAST): 0.8582 | AUC (PRISM viability) (MDAMB175VII_BREAST): 0.5383 | PRISM AUC (MDAMB231_BREAST): 0.478 | AUC (PRISM viability) (MDAMB361_BREAST): 0.7391 | AUC (PRISM viability) (MDAMB435S_SKIN): 0.9518 | AUC (PRISM viability) (MDAMB436_BREAST): 0.9067 | AUC (PRISM viability) (MDAMB453_BREAST): 0.3963 | AUC (PRISM viability) (MDAMB468_BREAST): 0.5525 | AUC (PRISM viability) (MDST8_LARGE_INTESTINE): 0.7229 | AUC (PRISM viability) (MELHO_SKIN): 0.9921 | AUC (PRISM viability) (MELJUSO_SKIN): 0.3578 | AUC (PRISM viability) (MESSA_SOFT_TISSUE): 0.9559 | AUC (PRISM viability) (MEWO_SKIN): 0.6173 | AUC (PRISM viability) (MFE280_ENDOMETRIUM): 0.5252 | AUC (PRISM viability) (MFE296_ENDOMETRIUM): 0.9033 | AUC (PRISM viability) (MFE319_ENDOMETRIUM): 0.8155 | AUC (PRISM viability) (MG63_BONE): 0.7861 | AUC (PRISM viability) (MHHES1_BONE): 0.8525 | AUC (PRISM viability) (MHHNB11_AUTONOMIC_GANGLIA): 0.4191 | PRISM AUC (MIAPACA2_PANCREAS): 0.1568 | AUC (PRISM viability) (MKN1_STOMACH): 0.5983 | AUC (PRISM viability) (MKN7_STOMACH): 0.4769 | AUC (PRISM viability) (MKN45_STOMACH): 0.1583 | AUC (PRISM viability) (MKN74_STOMACH): 0.7438 | AUC (PRISM viability) (MOLM13_HAEMATOPOIETIC_AND_LYMPHOID_TISSUE): 0.4032 | AUC (PRISM viability) (MOLP2_HAEMATOPOIETIC_AND_LYMPHOID_TISSUE): 0.65 | AUC (PRISM viability) (MOLT16_HAEMATOPOIETIC_AND_LYMPHOID_TISSUE): 0.6383 | AUC (PRISM viability) (MONOMAC1_HAEMATOPOIETIC_AND_LYMPHOID_TISSUE): 0.7673 | AUC (PRISM viability) (MONOMAC6_HAEMATOPOIETIC_AND_LYMPHOID_TISSUE): 0.6964

From publication PMC11111408, “Concurrent inhibition of oncogenic and wild-type RAS-GTP for cancer therapy” (Nature, 2024)
